# Patent US9809602B2, “Compounds for treating viral infections” (INSTITUT PASTEUR KOREA, priority 2014, dated 2017)
# Tested on: genotype 1/2 chimeric cell culture derived HCV (HCVcc)
# Assay: Genotype 1/2 chimeric HCVcc assay (nano-luciferase, HCV replication)
# Assay type: cell-based
# Conditions: Hepatitis C virus
# Outline: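 EC50 (replication, nano-luciferase) and CC50 (viability, cellular ATP) were determined by non-linear regression 72 h after infection with a reporter HCVcc chimera carrying genotype 1a structural and 2a JFH-1 non-structural proteins. Compound was applied to Huh-7.5 cells 2 h before inoculation.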
row,Structure (SMILES),EC50 [µM]
1,O=C(NCCCN1CCC(N2CCCCC2)CC1)c1ccc(-c2ccc(C(F)(F)F)cc2)cc1Cl [Compound 1112],0.1 to 1
2,O=C(NCCCN1CCC(N2CCCCC2)CC1)c1ccc(-c2ccc(CN3CCOCC3)cc2)cc1 [Compound 1138],1 to 10
3,Cc1ccc(-c2ccc(C(=O)NCCCN3CCC(N4CCCCC4)CC3)cc2)c(F)c1 [Compound 1135],0.1 to 1
4,O=C(NCCCN1CCC(N2CCCCC2)CC1)c1ccc(OCc2ccc(F)cc2)cc1 [Compound 1043],1 to 10
5,CN1CCC(C2CCN(CCCNC(=O)c3ccc(Oc4ccccc4)cc3)CC2)CC1 [Compound 1065],0.1 to 1
6,O=C(NCCCN1CCC(N2CCCCC2)CC1)c1ccc(-c2ccc(C(F)(F)F)cc2)cc1 [Compound 1019],0.1 to 1
7,O=C(Nc1ccc(N2CCC(N3CCCCC3)CC2)cc1)c1ccc(Oc2ccccc2)cc1 [Compound 1048],1 to 10
8,O=C(NCCCN1CCC(N2CCCCC2)CC1)c1ccc(-c2ccc(C(F)(F)F)cc2)cc1F [Compound 1153],0.1 to 1
9,O=C(NCCCN1CCC(N2CCCCC2)C1)c1ccc(Oc2ccccc2)cc1 (centres unmarked) [Compound 1084],> 10
10,O=C(CCCN1CCC(N2CCCCC2)CC1)Nc1ccc(-c2ccc(C(F)(F)F)cc2)cc1 [Compound 1086],0.1 to 1
11,O=C(NCCCN1CCN(C2CCCCC2)CC1)c1ccc(Oc2ccccc2)cc1 [Compound 1037],> 10
12,O=C(NCCCN1CCC(N2CCCCC2)CC1)c1ccccc1-c1ccccc1 [Compound 1011],> 10
13,O=C(CCCN1CCC(N2CCCCC2)CC1)Nc1ccc(-c2ccc(C(F)(F)F)cc2)c(F)c1 [Compound 1113],0.1 to 1
14,O=C(NCCCN1CCC(N2CCCCC2)CC1)c1ccc(Oc2ccccc2F)cc1 [Compound 1061],1 to 10
15,O=C(NCCCN1CCC(N2CCCCC2)CC1)c1ccc(-c2ccc(C(F)(F)F)cc2)c(C(F)(F)F)c1 [Compound 1105],0.1 to 1
16,c1ccc(Oc2ccc(CNCCCN3CCC(N4CCCCC4)CC3)cc2)cc1 [Compound 1046],0.1 to 1
17,O=C(NCCCN1CCC(N2CCCCC2)CC1)c1ccc(-c2cccc(CN3CCOCC3)c2)cc1 [Compound 1143],1 to 10
18,O=C(NCCCN1CCC(N2CCCCC2)CC1)c1ccc(Nc2ccccc2)cc1 [Compound 1070],1 to 10

# Same assay, conditions: Hepatitis C virus, Huh7.5, 72 h
row,Structure (SMILES),EC50 [µM]
1,CN1CCN(c2sc3c(c2CNC(=O)Nc2sc4c(c2C(=O)OC(C)(C)C)CCCC4)CCNC3)CC1 [Compound 144],0.1 to 1
2,CCOC(=O)c1c(NC(=O)NCc2c(-n3cccc3)sc3c2CCN(C)C3)sc(C)c1C [Compound 71],< 0.1
3,CCN1CCc2c(sc(-n3cccc3)c2CNC(=O)Nc2ccccc2)C1 [Compound 8],> 10
4,CCOC(=O)c1c(NC(=O)NCc2c(-n3cccc3)sc3c2CCN(CC)C3)sc2c1CCC(C)C2 (centres unmarked) [Compound 153],< 0.1
5,CCOC(=O)c1c(NC(=O)NCc2c(-n3cccc3)sc(CN(C)C)c2C)sc2c1CCCC2 [Compound 22],< 0.1
6,Cc1nnc(-c2c(NC(=O)NCc3c(-n4cccc4)sc4c3CCNC4)sc3c2CCCC3)o1 [Compound 60],0.1 to 1
7,CCOC(=O)c1c(NC(=O)C(=O)NCc2c(-n3cccc3)sc3c2CCNC3)sc2c1CCCC2 [Compound 86],1 to 10
8,CCN1CCc2c(sc(-n3cccc3)c2CNC(=O)Nc2sc3c(c2C(=O)OC(C)(C)C)CC(C)CC3)C1 (centres unmarked) [Compound 232],< 0.1
9,CC(C)(C)OC(=O)c1c(NC(=O)NCc2c(-n3cccc3)sc3c2CCN(CCF)C3)sc2c1CCCC2 [Compound 242],< 0.1
10,CCN1CCc2c(sc(-n3cccc3)c2CNC(=O)Nc2ccccc2C(=O)OC)C1 [Compound 10],> 10
11,CC(C)N1CCc2c(sc(-n3cccc3)c2CNC(=O)Nc2sc3c(c2C(=O)OC(C)(C)C)CCCC3)C1 [Compound 98],< 0.1
12,CCN1CCc2c(sc(-n3cccc3)c2CNC(=O)Nc2sc3c(c2C(=O)NCCCCNC(=O)OC(C)(C)C)CCCC3)C1 [Compound 90],1 to 10
13,COC(=O)c1c(NC(=O)NCc2c(-n3cccc3)sc3c2CCN(C)C3)sc2c1CCCC2 [Compound 155],0.1 to 1
14,CCOC(=O)c1c(NC(=O)NCc2c(-n3cccc3)sc3c2CCN(CC)C3)sc(N2CCOCC2)c1C [Compound 33],0.1 to 1
15,Cc1sc(NC(=O)NCc2c(-c3cccc(Cl)c3)sc3c2CCNC3)c(C(=O)OC2CCOC2)c1C (centres unmarked) [Compound 357],0.1 to 1
16,CCOC(=O)c1c(NC(=O)NCc2ccc(CN(C)C)cc2Br)sc2c1CCCC2 [Compound 93],0.1 to 1
17,Cc1sc(NC(=O)NCc2c(Br)sc3c2CCNC3)c(C(=O)OC(C)C)c1C [Compound 216],< 0.1
18,CCOC(=O)c1c(NC(=O)NCc2c(C(F)(F)F)sc(CN(C)C)c2C)sc2c1CCCC2 [Compound 214],< 0.1
19,CCNC(=O)c1c(NC(=O)NCc2c(-n3cccc3)sc3c2CCNC3)sc2c1CCCC2 [Compound 59],< 0.1

row,Structure (SMILES),EC50 [µM]
1,CC(C)(C)OC(=O)c1c(NC(=O)NCc2c(-c3ccc(C(F)(F)F)nc3)sc3c2CCNC3)sc2c1CCCC2 [Compound 131],0.1 to 1
2,CCN1CCc2c(sc(-n3cccc3)c2CNC(=O)Nc2sc3c(c2C(=O)NCCCOC)CCCC3)C1 [Compound 79],0.1 to 1
3,CCc1sc2c(c1CNC(=O)Nc1sc3c(c1C(=O)OC(C)(C)C)CCC(C)C3)CCNC2 (centres unmarked) [Compound 289],< 0.1
4,CCN1CCc2c(sc(-n3cccc3)c2CNC(=O)Nc2cccc(Cl)c2)C1 [Compound 9],> 10
5,CCOC(=O)c1c(NC(=O)NCc2c(-n3cccc3)sc3c2CCNC3)sc2c1CCC2 [Compound 112],< 0.1
6,CCOC(=O)c1c(NC(=O)NCc2c(Br)sc3c2CCN(C)C3)sc2c1CCCC2 [Compound 199],< 0.1
7,CC(C)OC(=O)c1c(NC(=O)NCc2c(-c3ccccc3)sc3c2CCNC3)sc2c1CCCC2 [Compound 226],< 0.1
8,CN1CCc2c(sc(C(F)(F)F)c2CNC(=O)Nc2sc3c(c2C(=O)OC(C)(C)C)CCC3)C1 [Compound 278],< 0.1
9,CCN1CCc2c(sc(-n3cccc3)c2CNC(=O)Nc2sc3c(c2C(=O)OC(C)(C)C)CC(C)CC3C)C1 (centres unmarked) [Compound 294],< 0.1
10,CCN1CCc2c(sc(-n3cccc3)c2CNC(=O)Nc2sc(C)c(C)c2C(=O)OC(C)(C)C)C1 [Compound 25],< 0.1
11,CCOC(=O)c1c(NC(=O)NCc2c(-n3cccc3)sc3c2CCCN3)sc2c1CCCC2 [Compound 101],0.1 to 1
12,CCN1CCc2c(sc(-n3cccc3)c2CNC(=O)Nc2sc3c(c2C(=O)NCCCCN)CCCC3)C1 [Compound 91],0.1 to 1
13,CC(C)OC(=O)c1c(NC(=O)NCc2c(Br)sc3c2CCNC3)sc2c1CCCC2 [Compound 140],< 0.1
14,CCc1c(C)sc(NC(=O)NCc2c(-n3cccc3)sc3c2CCNC3)c1C(=O)OC(C)(C)C [Compound 269],< 0.1
15,CCOC(=O)c1c(NC(=O)OCc2c(-n3cccc3)sc3c2CCN(CC)C3)sc2c1CCCC2 [Compound 94],< 0.1
16,CCOC(=O)c1c(NC(=O)NCc2c(Br)sc3c2CCNC3)sc2c1CC(C)CC2C (centres unmarked) [Compound 207],< 0.1
17,CCN1CCc2c(sc(-n3cccc3)c2CNC(=O)Nc2sc3c(c2C#N)CCCC3)C1 [Compound 5],> 10
18,CCOC(=O)c1c(NC(=O)NCc2c(-n3cccc3)sc3c2CCN(CC)C3)sc2c1CCNC2 [Compound 46],0.1 to 1
19,CC(C)(C)OC(=O)c1c(NC(=O)NCc2c(-c3ccnc(Cl)c3)sc3c2CCNC3)sc2c1CCCC2 [Compound 308],< 0.1
